Among the data in US8580825B2, “Oxadiazole inhibitors of leukotriene production” (Boehringer Ingelheim International GmbH, priority 2010, dated 2013) are IC50 values, retold here.

The test system of assay [1] is synthesis of LTB4 in human whole blood. As to the kind of experiment: human whole blood LTB4 production inhibition assay. The class given is cell-based. The conditions noted are these: calcimycin stimulated, read-out: hWB LTB4 IC50. The method, boiled down: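 Steps: compound plus heparinized human whole blood, 15 min at 37° C; add calcimycin to 20 μM final; incubate another 30 min at 37° C; centrifuge at low speed and collect plasma; measure LTB4 with a homogeneous time-resolved fluorescence immunoassay.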

Assay [2] has as its target T1, recombinant human FLAP protein (Homo sapiens, UniProt P20292).
T1 construct: made in house; host or cells: Sf9 insect cells (100,000xg membrane fraction used)
T1 sequence (P20292 1-161): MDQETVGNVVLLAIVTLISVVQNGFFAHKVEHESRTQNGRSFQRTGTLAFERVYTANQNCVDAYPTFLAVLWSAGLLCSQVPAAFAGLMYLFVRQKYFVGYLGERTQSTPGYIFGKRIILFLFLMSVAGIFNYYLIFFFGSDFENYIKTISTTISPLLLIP
As to the kind of experiment: FLAP binding assay (Scintillation Proximity Assay, displacement of [125I]L-691,831). The conditions noted are these: read-out: FLAP SPA IC50. The method, boiled down:
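Scintillation proximity displacement of [125I]L-691,831 (0.08 nM) from membranes of sf9 cells expressing recombinant human FLAP (5 μg/well) on WGA SPA beads, pH 7.5 Tris buffer. Plates shaken 2 h before counting. Non-specific binding defined with 10 μM unlabelled L-691,831.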
(In general: In a scintillation proximity assay essentially only radioactivity close to the scintillant gives light.)

For `CC(C)[C@](C)(c1ccc(-c2cnc(N)nc2)nc1)c1noc(-c2cnn(CCF)c2)n1` [Example 48, 5-{5-[(2R)-2-{5-[1-(2-fluoroethyl)-1H-pyrazol-4-yl]-1,2,4-oxadiazol-3-yl}-3-methylbutan-2-yl]pyridin-2-yl}pyrimidin-2-amine], the IC50 in assay [1] came out at 20 nM; in assay [2], 2.6 nM.
The corresponding values for `CC(C)[C@@](C)(c1ccc(-c2cnc(N)nc2)nc1)c1noc(-c2cnn(CCF)c2)n1` [Example 49, 5-{5-[(2S)-2-{5-[1-(2-fluoroethyl)-1H-pyrazol-4-yl]-1,2,4-oxadiazol-3-yl}-3-methylbutan-2-yl]pyridin-2-yl}pyrimidin-2-amine] are 1100 nM and 80.9 nM.
The like results for `Cn1cc(-c2nc(C(C)(c3ccc(-c4cnc(N)nc4)nc3)C3CC3)no2)cn1` (stereo not shown) [Example 50, 5-(5-{1-cyclopropyl-1-[5-(1-methyl-1H-pyrazol-4-yl)-1,2,4-oxadiazol-3-yl]ethyl}pyridin-2-yl)pyrimidin-2-amine] were, in that order, 110 nM and 9.5 nM.
Turning to `CC(C)[C@](C)(c1ccc(-c2cnc(N)nc2)nc1)c1noc(-c2cnc(N3CCNCC3)cn2)n1` [Example 51, 5-{5-[(2R)-3-methyl-2-{5-[5-(piperazin-1-yl)pyrazin-2-yl]-1,2,4-oxadiazol-3-yl}butan-2-yl]pyridin-2-yl}pyrimidin-2-amine], the IC50 in assay [1] was 160 nM; in assay [2] it was 3 nM.
The like results for `CC(C)[C@@](C)(c1ccc(-c2cnc(N)nc2)nc1)c1noc(-c2cnc(N3CCNCC3)cn2)n1` [Example 52, 5-{5-[(2S)-3-methyl-2-{5-[5-(piperazin-1-yl)pyrazin-2-yl]-1,2,4-oxadiazol-3-yl}butan-2-yl]pyridin-2-yl}pyrimidin-2-amine] were, in that order, 270 nM and 14 nM.
The like results for `CNC(=O)Cn1cc(-c2nc([C@@](C)(c3ccc(-c4cnc(N)nc4)nc3)C(C)C)no2)cn1` [Example 53, 2-[4-(3-{(2R)-2-[6-(2-aminopyrimidin-5-yl)pyridin-3-yl]-3-methylbutan-2-yl}-1,2,4-oxadiazol-5-yl)-1H-pyrazol-1-yl]-N-methylacetamide] were, in that order, 230 nM and 12.7 nM.
As to `CNC(=O)Cn1cc(-c2nc([C@](C)(c3ccc(-c4cnc(N)nc4)nc3)C(C)C)no2)cn1` [Example 54, 2-[4-(3-{(2S)-2-[6-(2-aminopyrimidin-5-yl)pyridin-3-yl]-3-methylbutan-2-yl}-1,2,4-oxadiazol-5-yl)-1H-pyrazol-1-yl]-N-methylacetamide], the IC50 is 750 nM in assay [1] and 70.7 nM in assay [2].
The corresponding values for `COCCN(C)c1cnc(-c2nc([C@@](C)(c3ccc(-c4cnc(N)nc4)nc3)C(C)C)no2)cn1` [Example 55, 5-{5-[(2R)-2-(5-{5-[(2-methoxyethyl)(methyl)amino]pyrazin-2-yl}-1,2,4-oxadiazol-3-yl)-3-methylbutan-2-yl]pyridin-2-yl}pyrimidin-2-amine] are 46 nM and 2.5 nM.
The corresponding values for `COCCN(C)c1cnc(-c2nc([C@](C)(c3ccc(-c4cnc(N)nc4)nc3)C(C)C)no2)cn1` [Example 56, 5-{5-[(2S)-2-(5-{5-[(2-methoxyethyl)(methyl)amino]pyrazin-2-yl}-1,2,4-oxadiazol-3-yl)-3-methylbutan-2-yl]pyridin-2-yl}pyrimidin-2-amine] are 230 nM and 11.8 nM.
For the molecule `Cn1cc(-c2nc([C@@](C)(c3ccc(-c4cnc(N)nc4)nc3)C3CC3)no2)cn1` [Example 57, 5-(5-{(1R)-1-cyclopropyl-1-[5-(1-methyl-1H-pyrazol-4-yl)-1,2,4-oxadiazol-3-yl]ethyl}pyridin-2-yl)pyrimidin-2-amine], the IC50 came out at 33 nM in assay [1] and 16 nM in assay [2].
As for `Cn1cc(-c2nc([C@](C)(c3ccc(-c4cnc(N)nc4)nc3)C3CC3)no2)cn1` [Example 58, 5-(5-{(1S)-1-cyclopropyl-1-[5-(1-methyl-1H-pyrazol-4-yl)-1,2,4-oxadiazol-3-yl]ethyl}pyridin-2-yl)pyrimidin-2-amine], the IC50 in assay [1] stood at 980 nM; in assay [2], 230 nM.
As to `CC(C)[C@@](C)(c1ccc(-c2cnc(N)nc2)nc1)c1noc(-c2cnn(CC(=O)N(C)C)c2)n1` [Example 59, 2-[4-(3-{(2S)-2-[6-(2-aminopyrimidin-5-yl)pyridin-3-yl]-3-methylbutan-2-yl}-1,2,4-oxadiazol-5-yl)-1H-pyrazol-1-yl]-N,N-dimethylacetamide], the IC50 was found to be 1800 nM in assay [1] and 450 nM in assay [2].
The corresponding values for `CC(C)[C@](C)(c1ccc(-c2ccc(N)nc2)nc1)c1noc(-c2cnn(C)c2)n1` [Example 60, 5-{(2R)-3-methyl-2-[5-(1-methyl-1H-pyrazol-4-yl)-1,2,4-oxadiazol-3-yl]butan-2-yl}-2,3′-bipyridin-6′-amine] are 17 nM and 3.4 nM.
The like results for `CC(C)[C@](C)(c1ccc(-c2cnc(N)nc2)nc1)c1noc(-c2cnn(CC(=O)N(C)C)c2)n1` [Example 61, 2-[4-(3-{(2R)-2-[6-(2-aminopyrimidin-5-yl)pyridin-3-yl]-3-methylbutan-2-yl}-1,2,4-oxadiazol-5-yl)-1H-pyrazol-1-yl]-N,N-dimethylacetamide] were, in that order, 48 nM and 3 nM.
The corresponding values for `CC(C)C(C)(c1ccc(-c2cnc(N)nc2)nc1)c1noc(-c2ccc(I)cc2)n1` (stereo not shown) [Example 62, 5-(5-{2-[5-(4-iodophenyl)-1,2,4-oxadiazol-3-yl]-3-methylbutan-2-yl}pyridin-2-yl)pyrimidin-2-amine] are 420 nM and 19.4 nM.
Take `CC(c1ccc(-c2cnc(N)nc2)nc1)(c1noc(-c2cnn(C3COC3)c2)n1)C1CC1` (stereo not shown) [Example 63, 5-[5-(1-cyclopropyl-1-{5-[1-(oxetan-3-yl)-1H-pyrazol-4-yl]-1,2,4-oxadiazol-3-yl}-ethyl)pyridin-2-yl]pyrimidin-2-amine]: the IC50 in assay [1] was found to be 29 nM; in assay [2] it was 8.7 nM.
On to `CC(c1ccc(-c2cnc(N)nc2)nc1)(c1noc(-c2cn[nH]c2)n1)C1CC1` (stereo not shown) [Example 64, 5-(5-{1-cyclopropyl-1-[5-(1H-pyrazol-4-yl)-1,2,4-oxadiazol-3-yl]ethyl}pyridin-2-yl)pyrimidin-2-amine], for which the IC50 in assay [1] amounted to 80 nM; in assay [2], 6.3 nM.
The like results for `C=C(CO)n1cc(-c2nc(C(C)(c3ccc(-c4cnc(N)nc4)nc3)C3CC3)no2)cn1` (stereo not shown) [Example 65, 2-[4-(3-{1-[6-(2-aminopyrimidin-5-yl)pyridin-3-yl]-1-cyclopropylethyl}-1,2,4-oxadiazol-5-yl)-1H-pyrazol-1-yl]prop-2-en-1-ol] were, in that order, 28 nM and 1.6 nM.
For the molecule `CN(C)C(=O)Cn1cc(-c2nc(C(C)(c3ccc(-c4cnc(N)nc4)nc3)C3CC3)no2)cn1` (stereo not shown) [Example 67, 2-[4-(3-{1-[6-(2-aminopyrimidin-5-yl)pyridin-3-yl]-1-cyclopropylethyl}-1,2,4-oxadiazol-5-yl)-1H-pyrazol-1-yl]-N,N-dimethylacetamide], the IC50 in assay [1] is 290 nM; in assay [2], 110 nM.
The like results for `COCCn1cc(-c2nc(C(C)(c3ccc(-c4cnc(N)nc4)nc3)C3CC3)no2)cn1` (stereo not shown) [Example 68, 5-[5-(1-cyclopropyl-1-{5[1-(2-methoxyethyl)-1H-pyrazol-4-yl]-1,2,4-oxadiazol-3-yl}ethyl)pyridin-2-yl]pyrimidin-2-amine] were, in that order, 80 nM and 24 nM.
The like results for `CC(C)C(C)(c1ccc(-c2cnc(N)nc2)nc1)c1noc(-c2ccc(I)c(Br)c2)n1` (stereo not shown) [Example 69, 5-(5-{2-[5-(3-bromo-4-iodophenyl)-1,2,4-oxadiazol-3-yl]-3-methylbutan-2-yl}pyridin-2-yl)pyrimidin-2-amine] were, in that order, 840 nM and 64.8 nM.
Regarding `CC(C)C(C)(c1ccc(-c2cnc(N)nc2)nc1)c1noc(-c2cccnc2)n1` (stereo not shown) [Example 70, 5-(5-{3-methyl-2-[5-(pyridin-3-yl)-1,2,4-oxadiazol-3-yl]butan-2-yl}pyridin-2-yl)pyrimidin-2-amine], the IC50 in assay [1] came out at 240 nM; in assay [2] it was 12.4 nM.
The like results for `CC(C)C(C)(c1ccc(-c2cnc(N)nc2)nc1)c1noc(-c2ccccc2)n1` (stereo not shown) [Example 71, 5-{5-[3-methyl-2-(5-phenyl-1,2,4-oxadiazol-3-yl)butan-2-yl]pyridin-2-yl}pyrimidin-2-amine] were, in that order, 840 nM and 8.1 nM.
On to `Cc1ccc(-c2nc(C(C)(c3ccc(-c4cnc(N)nc4)nc3)C(C)C)no2)cn1` (stereo not shown) [Example 72, 5-(5-{3-methyl-2-[5-(6-methylpyridin-3-yl)-1,2,4-oxadiazol-3-yl]butan-2-yl}pyridin-2-yl)pyrimidin-2-amine], for which the IC50 was found to be 440 nM in assay [1] and 26.4 nM in assay [2].
The like results for `CC(C)C(C)(c1ccc(-c2cnc(N)nc2)nc1)c1noc(-c2cn[nH]c2)n1` (stereo not shown) [Example 73, 5-(5-{3-methyl-2-[5-(1H-pyrazol-4-yl)-1,2,4-oxadiazol-3-yl]butan-2-yl}pyridin-2-yl)pyrimidin-2-amine] were, in that order, 110 nM and 3.9 nM.
Turning to `CC(C)C(C)(c1ccc(-c2cnc(N)nc2)nc1)c1noc(-c2ccc(NCCO)nc2)n1` (stereo not shown) [Example 74, 2-{[5-(3-{2-[6-(2-aminopyrimidin-5-yl)pyridin-3-yl]-3-methylbutan-2-yl}-1,2,4-oxadiazol-5-yl)pyridin-2-yl]amino}ethanol], the IC50 in assay [1] is 220 nM; in assay [2], 3.1 nM.

By IC50 is commonly meant the concentration needed to halve the response being measured.
